According to ChEMBL document CHEMBL1201862, “PubChem BioAssay data set” (2004):
Active and inactive are the calls of the source.

Columns and labels:
Format in all cases: functional
Genome polyprotein = Genome polyprotein (dengue virus type 2, UniProt P29990); assay: Dengue-2 NS5 methyltransferase inhibitors, primary screen, biochemical, confirmation dose response (AID 588689)
[1] = biological target: T1, Carboxy-terminal domain RNA polymerase II polypeptide A small phosphatase 1 (Homo sapiens, UniProt Q9GZU7); assay: inhibitors of CTDSP1, concentration-response testing, biochemical assay, absorbance-based, actives from ultra-high-throughput screening (AID 540297)
T1 sequence (Q9GZU7 whole entry): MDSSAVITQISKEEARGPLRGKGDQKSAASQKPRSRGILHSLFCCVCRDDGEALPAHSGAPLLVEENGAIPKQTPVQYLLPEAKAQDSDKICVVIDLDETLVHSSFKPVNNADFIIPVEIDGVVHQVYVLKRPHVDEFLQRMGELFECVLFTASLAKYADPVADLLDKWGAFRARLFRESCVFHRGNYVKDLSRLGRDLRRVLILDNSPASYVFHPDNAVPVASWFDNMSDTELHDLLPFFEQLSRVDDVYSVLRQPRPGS

[2] = biological target: T2, Heat shock factor protein 1 (Mus musculus, UniProt P38532); assay: inhibition of MG132-induced HSE-luciferase signal, confirmation, cell-based, NIH3T3, luminescence, dose retest (AID 2382);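 note: NIH3T3 fibroblasts with HSF1-driven luciferase reporter stressed by proteasome inhibitor MG132; luminescence from HSF1-driven luciferase expression after 8 hours of MG132 stress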
T2 sequence (P38532 whole entry): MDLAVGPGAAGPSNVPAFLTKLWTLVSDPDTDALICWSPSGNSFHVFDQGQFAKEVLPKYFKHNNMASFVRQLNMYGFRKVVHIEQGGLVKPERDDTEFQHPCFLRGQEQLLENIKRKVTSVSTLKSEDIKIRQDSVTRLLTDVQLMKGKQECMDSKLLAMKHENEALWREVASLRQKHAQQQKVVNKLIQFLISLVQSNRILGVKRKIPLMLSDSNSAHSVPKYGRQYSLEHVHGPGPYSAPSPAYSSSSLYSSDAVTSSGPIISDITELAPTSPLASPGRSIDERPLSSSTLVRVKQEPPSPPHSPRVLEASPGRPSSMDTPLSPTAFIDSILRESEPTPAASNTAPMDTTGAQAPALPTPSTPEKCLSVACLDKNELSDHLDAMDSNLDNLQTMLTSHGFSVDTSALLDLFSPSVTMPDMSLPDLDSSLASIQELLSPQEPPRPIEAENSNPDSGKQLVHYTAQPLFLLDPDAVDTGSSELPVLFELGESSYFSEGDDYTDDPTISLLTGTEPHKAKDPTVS

Chain of Genome polyprotein (P29990 2492-3391 limits assumed): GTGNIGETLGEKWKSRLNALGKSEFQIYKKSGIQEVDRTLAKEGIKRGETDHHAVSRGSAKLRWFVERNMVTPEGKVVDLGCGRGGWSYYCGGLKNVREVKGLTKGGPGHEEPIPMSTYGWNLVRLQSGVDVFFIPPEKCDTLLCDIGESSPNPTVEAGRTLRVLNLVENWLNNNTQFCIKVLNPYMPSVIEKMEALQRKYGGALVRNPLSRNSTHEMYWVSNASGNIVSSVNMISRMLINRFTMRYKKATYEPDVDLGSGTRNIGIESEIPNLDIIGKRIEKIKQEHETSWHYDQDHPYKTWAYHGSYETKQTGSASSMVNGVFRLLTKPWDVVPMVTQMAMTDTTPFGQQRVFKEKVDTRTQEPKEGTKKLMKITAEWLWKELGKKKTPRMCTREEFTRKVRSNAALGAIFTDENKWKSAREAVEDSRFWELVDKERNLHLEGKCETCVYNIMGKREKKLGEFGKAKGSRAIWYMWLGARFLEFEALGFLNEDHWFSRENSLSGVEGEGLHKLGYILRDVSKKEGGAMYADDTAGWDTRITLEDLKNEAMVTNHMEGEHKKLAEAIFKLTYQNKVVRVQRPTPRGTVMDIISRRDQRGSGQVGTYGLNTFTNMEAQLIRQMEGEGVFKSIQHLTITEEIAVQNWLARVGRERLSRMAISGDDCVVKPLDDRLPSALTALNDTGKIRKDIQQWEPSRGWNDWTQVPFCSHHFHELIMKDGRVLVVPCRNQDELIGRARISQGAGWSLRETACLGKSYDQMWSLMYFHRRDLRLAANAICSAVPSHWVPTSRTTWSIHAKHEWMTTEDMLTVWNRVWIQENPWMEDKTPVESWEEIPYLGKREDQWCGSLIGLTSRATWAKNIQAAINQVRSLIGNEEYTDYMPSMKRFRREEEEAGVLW

SMILES	IC50 (Genome polyprotein)	IC50 [1]	EC50 [2]
COc1cc(C(C2C(=O)CC(C)(C)CC2=O)C2C(=O)CC(C)(C)CC2=O)cc(OC)c1OC	87.7 µM (active)	–	–
C/C=C\C=C\C(=O)N1CC2(CC(c3cccc(NC(=O)CC)c3)=NO2)C[C@H]1C(N)=O (stereo partly specified)	–	7.57 µM (active)	–
CCOC(=O)C1(C)C(N=Nc2cccc(Cl)c2)=C(O)C(=O)N1c1ccccc1 (stereo unspecified)	18.4 µM (active)	–	–
Cc1c(NS(=O)(=O)c2cc(C(=O)NCCN(C)C)ccc2Cl)c(=O)n(-c2ccccc2)n1C	–	9.93 µM (active)	> 195 µM (not active)
CS(=O)(=O)C1=NN2C(=N)/C(=C\c3ccc(OCCOc4ccccc4)cc3)C(=O)N=C2S1	–	6.76 µM (active)	–
